Measurements reported in PMC7411735, “New Terpendole Congeners, Inhibitors of Sterol O-Acyltransferase, Produced by Volutella citrinella BF-0440” (Molecules, 2020).
Where two headings read alike, the source gives them in different places.

How the values were obtained:
[1] = biological target: T1, human SOAT1 (Homo sapiens, UniProt P35610); experiment: SOAT1 activity in SOAT1-CHO cells ([14C]CE formation from [1-14C]oleic acid); type: cell-based; conditions: for IC50: n ≧ 3
T1 construct: expressed in transfected cells; host or cells: CHO AC29 (SOAT-deficient) cells
T1 sequence (P35610 1-550): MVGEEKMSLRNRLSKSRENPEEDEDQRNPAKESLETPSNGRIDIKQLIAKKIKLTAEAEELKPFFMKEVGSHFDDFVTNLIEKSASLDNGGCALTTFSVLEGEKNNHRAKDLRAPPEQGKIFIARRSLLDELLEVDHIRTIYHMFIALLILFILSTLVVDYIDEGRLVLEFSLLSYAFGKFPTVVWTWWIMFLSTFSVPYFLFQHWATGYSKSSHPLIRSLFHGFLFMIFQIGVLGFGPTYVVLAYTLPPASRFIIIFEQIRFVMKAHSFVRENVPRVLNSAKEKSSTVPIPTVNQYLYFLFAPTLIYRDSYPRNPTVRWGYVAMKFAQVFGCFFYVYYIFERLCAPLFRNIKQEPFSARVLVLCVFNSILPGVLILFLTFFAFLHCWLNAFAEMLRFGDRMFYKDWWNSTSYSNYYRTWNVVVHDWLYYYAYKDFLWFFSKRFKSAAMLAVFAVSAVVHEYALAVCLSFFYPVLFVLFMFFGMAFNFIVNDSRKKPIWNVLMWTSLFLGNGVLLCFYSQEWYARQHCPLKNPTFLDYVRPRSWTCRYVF
Procedure: (§1) CHO cells (AC29 cells, SOAT-deficient cells) expressing the SOAT1 or SOAT2 genes from human were cultured using a previously described method [17].
(§2) Assays for human SOAT1 and SOAT2 activities using SOAT1- and SOAT2-CHO cells were performed using our established method [11, 17]. […] At least 80% confluent cells were used for assays. […] After a 6-h incubation at 37 °C in 5% CO2, medium was removed, and the cells in each well were washed twice with PBS. Cells were lysed by adding 0.25 mL of 10 mM Tris-HCl (pH 7.5) containing 0.1% (w/v) sodium dodecyl sulfate, and [^14C]CE was analyzed using a FLA-7000 analyzer (Fuji Film). In this cell-based assay, [^14C]CE was produced by the reaction of SOAT1 or SOAT2. SOAT inhibitory activity (%) is defined as ([1-^14C]CE-drug/[^14C]CE-control) × 100.

[2] = biological target: T2, human SOAT2 (Homo sapiens, UniProt O75908); experiment: SOAT2 activity in SOAT2-CHO cells ([14C]CE formation from [1-14C]oleic acid); type: cell-based; conditions: for IC50: n ≧ 3
T2 construct: expressed in transfected cells; host or cells: CHO AC29 (SOAT-deficient) cells
T2 sequence (O75908 1-522): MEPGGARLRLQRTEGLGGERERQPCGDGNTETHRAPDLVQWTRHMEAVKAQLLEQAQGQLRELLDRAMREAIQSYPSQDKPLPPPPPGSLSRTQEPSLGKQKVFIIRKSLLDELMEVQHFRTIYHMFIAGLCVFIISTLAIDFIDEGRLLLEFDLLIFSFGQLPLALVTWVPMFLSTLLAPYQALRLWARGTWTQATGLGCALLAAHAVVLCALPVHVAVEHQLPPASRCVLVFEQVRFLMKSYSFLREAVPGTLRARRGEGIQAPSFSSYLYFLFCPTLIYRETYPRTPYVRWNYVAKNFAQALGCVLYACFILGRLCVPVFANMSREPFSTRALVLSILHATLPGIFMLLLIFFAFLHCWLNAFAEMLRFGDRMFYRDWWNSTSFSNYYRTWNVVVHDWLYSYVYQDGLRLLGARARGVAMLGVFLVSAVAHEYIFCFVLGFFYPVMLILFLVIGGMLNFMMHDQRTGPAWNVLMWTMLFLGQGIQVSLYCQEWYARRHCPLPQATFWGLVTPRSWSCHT
Procedure: as §1, §2

[3] = test system: human SOAT2; parameters: method as in PMID 32467602; conditions: classified by SI; cited from earlier work
[4] = biological target: T2, human SOAT2; parameters: method as in PMID 32467602; conditions: SOAT2-CHO cells; cited from earlier work
[5] = test system: human SOAT2; experiment: SOAT2 activity in SOAT2-CHO cells ([14C]CE formation from [1-14C]oleic acid); type: cell-based; conditions: classified by SI
Procedure: as §1, §2

[6] = test system: SOAT2; parameters: method as in PMID 17390588; conditions: cited from earlier work
[7] = test system: African green monkey SOAT2; parameters: method as in PMID 16629409; conditions: cited from earlier work
[8] = test system: African green monkey SOAT1; parameters: method as in PMID 16629409; conditions: African green monkey SOAT1-CHO cells; cited from earlier work
[9] = IC50 SOAT1, human SOAT1-CHO cells
[10] = IC50 SOAT2, human SOAT2-CHO cells
[11] = SAR comparison: 4 vs 6 (R5), 8 vs 11 (R6)

CC(C)=CCc1cccc2[nH]c3c(c12)C[C@@H]1CC[C@@]2(O)[C@@]45O[C@@H]4[C@H](O)[C@@H](C(C)(C)O)O[C@H]5CC[C@]2(C)[C@@]31C [Compound 10, tolypocladin A]
IC50 ([1]; human SOAT1-CHO cells, read-out: IC50 SOAT1): > 18 µM
IC50 ([2]; human SOAT2-CHO cells, read-out: IC50 SOAT2): > 18 µM

CC(C)=C[C@H]1O[C@H]2[C@H]3O[C@@]34[C@@H](O[C@@H]2C(C)(C)O1)[C@H](O)C[C@@]1(C)[C@@]4(O)CC[C@H]2C[C@@]3(O)c4c(CC5OC5(C)C)cccc4N[C@@]3(O)[C@@]21C (stereo partly shown) [Compound 6, NK12838]
Type of inhibitors [3]: dual (Dual with -1.0 < SI < +1.0)
IC50 [4]: 3.5 µM

CC(C)=C[C@H]1O[C@H]2[C@H]3O[C@@]34[C@H](CC[C@@]3(C)[C@@]4(O)CC[C@H]4Cc5c([nH]c6ccccc56)[C@@]43C)O[C@@H]2C(C)(C)O1 [Compound 7, terpendole C]
IC50 [1, 9]: 2 µM
Type of inhibitors [5]: dual (Dual with -1.0 < SI < +1.0)
IC50 [2, 10]: 2.2 µM

CC(C)=C[C@H]1O[C@H]2[C@H]3O[C@@]34[C@H](CC[C@@]3(C)[C@@]4(O)CC[C@H]4C[C@@]5(O)c6c(CC7OC7(C)C)cccc6N[C@@]5(O)[C@@]43C)O[C@@H]2C(C)(C)O1 (stereo partly shown) [Compound 4, voluhemin A]
Type of inhibitors [3]: dual (Dual with -1.0 < SI < +1.0)
enhancement of SOAT1 inhibitory activity relative to comparison compound [1, 11]: approximately 10 fold
enhancement of SOAT2 inhibitory activity relative to comparison compound [2, 11]: approximately 10 fold

CC(C)=CCOC(C)(C)[C@H]1O[C@H]2CC[C@@]3(C)[C@@H](CC[C@H]4Cc5c([nH]c6ccccc56)[C@@]43C)[C@]23O[C@@H]3[C@@H]1O [Compound 8, terpendole D]
IC50 [1, 9]: 0.8 µM
Type of inhibitors [5]: dual (Dual with -1.0 < SI < +1.0)
IC50 [2, 10]: 2.1 µM

CC(C)=CCOC(C)(C)[C@H]1O[C@H]2CC[C@@]3(C)[C@]4(O[C@H]4C[C@H]4Cc5c([nH]c6ccccc56)[C@@]43C)[C@]23O[C@@H]3[C@@H]1O [Compound 3, terpendole P]
IC50 [1, 9]: 5.9 µM
Type of inhibitors [5]: dual (Dual with -1.0 < SI < +1.0)
IC50 [2, 10]: 6.9 µM

CC(C)=CCOC(C)(C)[C@H]1O[C@H]2CC[C@@]3(C)[C@@](O)(CC[C@H]4Cc5c([nH]c6ccccc56)[C@@]43C)[C@]23O[C@@H]3[C@@H]1O [Compound 11, terpendole J]
IC50 [1, 9]: 18.6 µM
Type of inhibitors [5]: dual (Dual with -1.0 < SI < +1.0)
IC50 [2, 10]: 10.7 µM

CC(C)=CC1OC2C(OC3CCC4(C)C(C)(O)C(CC5(O)C(=O)Nc6cccc(CC7OC7(C)C)c65)CCC4(O)C34OC24)C(C)(C)O1 (stereo not shown) [Compound 1, Terpendole N]
IC50 ([1]; read-out: IC50 SOAT1, human SOAT1-CHO cells): > 14 µM
IC50 ([2]; read-out: IC50 SOAT2, human SOAT2-CHO cells): > 14 µM

CC(C)=CCc1cccc2[nH]c3c(c12)C[C@@H]1CC[C@@]2(O)[C@@]45O[C@@H]4[C@@H]4O[C@H](C=C(C)C)OC(C)(C)[C@H]4O[C@H]5CC[C@]2(C)[C@@]31C [Compound 9, terpendole L]
IC50 [1, 9]: 6.8 µM
Type of inhibitors [5]: dual (Dual with -1.0 < SI < +1.0)
IC50 [2, 10]: 1.8 µM

pyripyropene A
SOAT isozyme selectivity [6]: highly selective SOAT2 inhibitor

CC(C)=C[C@H]1O[C@H]2[C@H]3O[C@@]34[C@H](CC[C@@]3(C)[C@@]4(O)CC[C@H]4Cc5c([nH]c6cccc(CC7OC7(C)C)c56)[C@@]43C)O[C@@H]2C(C)(C)O1 (stereo partly shown) [Compound 2, terpendole O]
IC50 [1, 9]: 2.8 µM
Type of inhibitors [5]: dual (Dual with -1.0 < SI < +1.0)
IC50 [2, 10]: 2.4 µM

CC(C)=CCc1c([C@H](O)C2OC2(C)C)ccc2[nH]c3c(c12)C[C@@H]1CC[C@@]2(O)C(C)(C)C(=O)CC[C@]2(C)[C@@]31C (stereo partly shown) [Compound 12, sespendole]
IC50 ([7]; African green monkey SOAT2-CHO cells): 6.5 µM
Type of inhibitors ([7]; classified by SI, African green monkey SOAT1 and SOAT2-CHO cells): dual (Dual with -1.0 < SI < +1.0)
IC50 [8]: 12 µM
